Measurements taken from paper PMC8819633 (Journal of medicinal chemistry, 2021).

What was measured:
T-AKT and P-AKT = test: Competition; assay type: cell-based, human; settings: BT474, then degrader 22 h; for effect of GDC-0068 pretreatment on degrader-induced AKT degradation: 2 h pretreatment with GDC-0068 (1 μM); for effect of MG132 pretreatment on degrader-induced AKT degradation: 2 h pretreatment with MG132 (10 μM); for effect of MLN4924 pretreatment on degrader-induced AKT degradation: 2 h pretreatment with MLN4924 (1 μM)
MDA-MB-468 cells [1] = test: Cell proliferation assay; assay type: cell-based, human; settings: 5 days
[2] = assay type: in vivo; settings: mice, single IP injection, 50 mg/kg
MDA-MB-468 cells [3] = test: Apoptosis assay; assay type: cell-based, human; settings: MDA-MB-468 cells (Figure S5)
[4] = tested on: P-PRAS40 (T246) and P-S6 (S240/244); test: Western blot of downstream signaling inhibition in BT474 cells; assay type: cell-based, human; settings: for kinetics of downstream signaling inhibition: 1 μM, vs GDC-0068; for inhibition of downstream signaling, P-PRAS40 and P-S6: 24 h, compared with GDC-0068 (1 μM)
PC3 cells = test: Cell proliferation assay; assay type: cell-based, human; settings: 5 days
T-AKT and P-AKT (S473) = test: Western blot of AKT degradation in PC3 cells; assay type: cell-based, human
[5] = 50 mg/kg; for time of Cmax: male Swiss albino mice, single IP injection
[6] = tested on: total AKT (T-AKT) and phosphorylated AKT (P-AKT (S473)); test: Western blot of AKT degradation in BT474 cells; assay type: cell-based, human; settings: for time course of T-AKT and P-AKT degradation: indicated times; for T-AKT and P-AKT protein degradation (western blot): 24 h, 1, 5 and 10 μM (12-13: 1, 3 and 10 μM); for hook effect in AKT degradation: higher concentrations (up to 10 μM); for extent of T-AKT degradation in concentration-response: indicated concentrations; for hook effect in concentration-response: concentrations up to 10 μM

SMILES: Cc1ncsc1-c1ccc([C@H](C)NC(=O)[C@@H]2C[C@@H](O)CN2C(=O)[C@@H](NC(=O)CCCCCCCCCCC(=O)NCCNC[C@@H](C(=O)N2CCN(c3ncnc4c3[C@H](C)C[C@H]4O)CC2)c2ccc(Cl)cc2)C(C)(C)C)cc1 [Compound 13, N^1-(2-(((S)-2-(4-Chlorophenyl)-3-(4-((5R,7R)-7-hydroxy-5-methyl-6,7-dihydro-5H-cyclopenta[d]pyrimidin-4-yl)piperazin-1-yl)-3-oxopropyl)amino)ethyl)-N^12-((S)-1-((2S,4R)-4-hydroxy-2-(((S)-1-(4-(4-methylthiazol-5-yl)phenyl)ethyl)carbamoyl)pyrrolidin-1-yl)-3,3-dimethyl-1-oxobutan-2-yl)dodecanediamide]
- effect of GDC-0068 pretreatment on degrader-induced AKT degradation (T-AKT and P-AKT): blocked the AKT degradation induced by 13
- effect of MG132 pretreatment on degrader-induced AKT degradation (T-AKT and P-AKT): completely prevented 13-mediated degradation of T-AKT and P-AKT and inhibition of P-PRAS40
- effect of MLN4924 pretreatment on degrader-induced AKT degradation (T-AKT and P-AKT): completely prevented 13-mediated degradation of T-AKT and P-AKT and inhibition of P-PRAS40
- growth inhibition (MDA-MB-468 cells [1]): comparable potencies to GDC-0068 and INY-03–041
- tolerability [2]: well tolerated
- apoptosis induced (MDA-MB-468 cells [3]): ≤ 3%
- kinetics of downstream signaling inhibition [4]: not as rapid as that induced by GDC-0068
- inhibition of downstream signaling, P-PRAS40 and P-S6 [4]: more profound inhibition of P-PRAS40 and P-S6 than 11
- growth inhibition (PC3 cells): comparable potencies to GDC-0068 and INY-03–041
- AKT degradation, concentration-response (T-AKT and P-AKT (S473)): effectively induced AKT degradation in a concentration-dependent manner
- time of Cmax [5]: 2 h
- plasma concentrations over 8 h ([5]; mouse, in vivo, ip): above 3 μM
- duration of T-AKT and P-AKT degradation ([6]; 1 μM): at least 24 h
- time course of T-AKT and P-AKT degradation ([6]; 1 μM): Obvious degradation occurred at 4 h, and near-complete degradation was achieved at 8 h
- T-AKT and P-AKT protein degradation (western blot) [6]: remarkable effects on degrading T-AKT and P-AKT
- hook effect in AKT degradation ([6]; 24 h): less ″hook effect″ than 12
- extent of T-AKT degradation in concentration-response ([6]; 24 h): near-complete depletion of T-AKT at 1 μM
- hook effect in concentration-response [6]: No ″hook effect″ was observed

SMILES: C[C@@H]1C[C@@H](O)c2ncnc(N3CCN(C(=O)[C@H](CNCCC(=O)NCCCCCCCCNc4cccc5c4C(=O)N(C4CCC(=O)NC4=O)C5=O)c4ccc(Cl)cc4)CC3)c21 (stereo partly drawn) [Compound 25]
- effect of GDC-0068 pretreatment on degrader-induced AKT degradation (T-AKT and P-AKT): rescued 25-induced AKT degradation
- effect of MG132 pretreatment on degrader-induced AKT degradation (T-AKT and P-AKT): rescued 25-induced AKT degradation
- effect of MLN4924 pretreatment on degrader-induced AKT degradation (T-AKT and P-AKT): rescued 25-induced AKT degradation
- growth inhibition (MDA-MB-468 cells [1]): comparable potencies to GDC-0068 and INY-03–041
- tolerability [2]: well tolerated
- apoptosis induced (MDA-MB-468 cells [3]): ≤ 3%
- kinetics of downstream signaling inhibition [4]: not as rapid as that induced by GDC-0068
- inhibition of downstream signaling, P-PRAS40 and P-S6 [4]: most effective in inhibiting the downstream signaling
- growth inhibition (PC3 cells): comparable potencies to GDC-0068 and INY-03–041
- AKT degradation, concentration-response (T-AKT and P-AKT (S473)): effectively induced AKT degradation in a concentration-dependent manner
- time of Cmax [5]: 2 h
- duration of T-AKT and P-AKT degradation ([6]; 1 μM): at least 24 h
- T-AKT and P-AKT degradation ([6]; 1 μM, 24 h): > 95%
- time course of T-AKT and P-AKT degradation ([6]; 1 μM): Significant P-AKT and T-AKT degradation occurred as early as 4 and 8 h, respectively
- T-AKT and P-AKT protein degradation (western blot) [6]: highly effective in reducing T-AKT and P-AKT protein levels
- hook effect in AKT degradation ([6]; 24 h): without a ″hook effect″
- extent of T-AKT degradation in concentration-response ([6]; 24 h): complete degradation of T-AKT at 300 nM
- hook effect in concentration-response [6]: No ″hook effect″ was observed
